Where two headings read alike, the source gives them in different places.
Columns and labels:
[1] = system: Puccinia recondita; assay: Protective activity against Puccinia recondita on wheat (brown rust of wheat), greenhouse; assay type: in vivo, Puccinia recondita on wheat seedlings cultivar Kanzler; conditions: sprayed 5 days before inoculation, visual rating
[2] = system: Botrytis cinerea; assay: Activity against the gray mold pathogen Botrytis cinerea in the microtiter test; assay type: cell-based; conditions: day 7 after inoculation, absorption 405 nm
[3] = system: Phytophthora infestans; assay type: cell-based; conditions: day 7 after inoculation, absorption 405 nm

SMILES	Observed efficacy (%) ([1]; 16 ppm single active compound)	Observed efficacy (%) ([1]; 63 ppm single active compound)	Observed efficacy (%) ([2]; 4 ppm single active compound)	Observed efficacy (%) ([3]; 2 ppm single active compound)	Observed efficacy (%) ([3]; 4 ppm single active compound)	Observed efficacy (%) ([2]; 1 ppm single active compound)	Observed efficacy (%) ([1]; 4 ppm single active compound)
CO/C=C(/C(=O)OC)c1ccccc1CO/N=C(C)/C=C/c1ccc(Cl)cc1 [enestroburin (I), methyl 2-{2-[3-(4-chlorophenyl)-1-methylallylideneaminooxymethyl]phenyl}-3-methoxyacrylate]	22	44	48	70	82		
Cc1ccc(-c2c(Cl)nc(C#N)n2S(=O)(=O)N(C)C)cc1 [cyazofamid (II-30), 4-chloro-2-cyano-N,N-dimethyl-5-(4-methylphenyl)-1H-imidazole-1-sulfon-amide]			0			0	
OC(Cc1ccccc1Cl)(Cn1nc[nH]c1=S)C1(Cl)CC1 (centres unmarked) [prothioconazole (II-19), 2-[2-(1-chlorocyclopropyl)-3-(2-chlorophenyl)-2-hydroxypropyl]-2,4-dihydro[1,2,4]triazol-3-thione]							0

— patent US20080125318A1, “Fungicidal Mixtures Containing Enestroburin and at Least One Active Substance from the Group of Azoles” (priority 2004, published 2008)
